Drawing on patent publication US7223793B2, “Phenolic acid derivatives and composition for preventing or treating blood lipid level-related diseases comprising the same” (Bionutrigen Co., Ltd., priority 2001, dated 2007), this text covers Body weight change and LD50 for 1 molecule.

This data set has as its system ICR mice. Put plainly: Acute oral toxicity in mice (Experimental Example 5). The format is in vivo. As to the method:
The toxicity of orally administered BN30028 was tested as follows. Four-week-old specific pathogen-free ICR mice, 12 female mice and 12 male mice, were kept in a room under conditions of 22±3° C., 55±10% relative humidity and 12L/12D photoperiod. The mice was acclimated for one week before using in experiment. Fodder (Cheiljedang Co., mouse and rat fodder) and water were sterilized and freely fed to the mice.
BN30028 was dissolved in 0.5% Tween 80 to a concentration of […] and the solution was orally administered to the mice in an amount of 0.2 mL (1 g/kg), 0.4 mL (2 g/kg) or 0.8 mL (4 g/kg) per 20 g of mouse body weight. The solution was administered once for the 1 g/kg and 2 g/kg groups and twice for the 4 g/kg group. […] Also, on the 7th day, the mice were sacrificed and the internal organs were visually examined. From the day of the administration, the weight changes of the animals were recorded every other day to examine the effect of BN30028 on the reduction of body weight of animals.

With `COC(=O)C(Cc1ccccc1)NC(=O)CCc1ccc(O)c(O)c1` (centres unmarked) [BN30028, 2-[3-(3,4-dihydroxyphenyl)propionylamino]-3-phenyl propionic acid methyl ester], the Body weight change result (oral 1 g/kg, 2 g/kg and 4 g/kg, 7 days after the administration) is “normal weight increase without any weight loss”. Further, the LD50 result (orally administered, female and male mice) is “more than 4 g/kg body weight”.
